Literature values, collected in patent US6509030B2, “Cultured fish carotenoid and polyphenol added feed for improving fish body color tone and fish meat brilliance” (Toshiyuki Sakiura, priority 2000, dated 2003).

CC1=C(/C=C/C(C)=C/C=C/C(C)=C/C=C/C=C(C)/C=C/C=C(C)/C=C/C2=C(C)C(=O)[C@@H](O)CC2(C)C)C(C)(C)C[C@H](O)C1=O [Asthaxanthine, asthaxanthine]
chemical stability, acidic (acidic): very unstable | chemical stability, basic (basic): Unstable | chemical stability, neutral (neutral): Unstable
